From patent US20200131176A1, “SELECTIVE INHIBITORS OF CLINICALLY IMPORTANT MUTANTS OF THE EGFR TYROSINE KINASE” (CS Pharmatech Limited, priority 2017, published 2020)
Where “and” joins values, the source holds several entries; their conditions need not be identical. Identical values can stand only once. Like-named read-outs stand apart in the source and are kept apart here.

Assays:
IGF-1R = target: T1, IGF-1R (Homo sapiens, UniProt P08069); experiment: IGF-1R inhibition assay (Caliper mobility shift); type: biochemical; settings: enzyme assay
T1 construct: purchased CARNA BIOSCIENCE 08-141

INSR = target: T2, INSR (Homo sapiens, UniProt P06213); experiment: INSR inhibition assay (Caliper mobility shift); type: biochemical; settings: enzyme assay
T2 construct: purchased CARNA BIOSCIENCE 08-142

H1975 cells = experiment: H1975 inhibition assay (cell proliferation, CellTiter-Glo, 72 h); type: cell-based, human; settings: cellular proliferation, double mutant EGFR
PC-9 cells = experiment: PC-9 growth inhibition assay (cell proliferation, CellTiter-Glo, 72 h); type: cell-based, human; settings: cellular proliferation, PC9 cells, single mutant EGFR
[1] = target: T3, Exon 19 deletion EGFR (activating single mutant) in PC-9 cells (Homo sapiens, UniProt P00533, DEL746-750); experiment: Exon 19 deletion EGFR PC-9 cellular autophosphorylation assay (p-EGFR ELISA); type: cell-based; settings: PC9, 2 h treatment, read-out: SM (PC9) IC50
T3 construct: cellular phosphorylation of endogenous p-EGFR; host or cells: PC9 (PC-9) human lung cell line

A431 cells = experiment: A431 inhibition assay (cell proliferation, CellTiter-Glo, 72 h); type: cell-based, human
[2] = system: H1975 NSCLC cells xenograft (EGFR L858R/T790M double mutant); experiment: EGFR L858R/T790M double-mutant H1975 xenograft model; type: in vivo, nu/nu mice; settings: day 10 after dosing; for Tumor Size: average ± SEM, n = 9
[3] = target: Wild type EGFR in A431 cells (Homo sapiens, UniProt P00533); settings: WT (A431) IC50 nM, cellular EGFR autophosphorylation, A431, 2 h treatment then EGF stimulation 10 min
[4] = target: hERG channel (HEK 293 cell line stably expressing hERG channel) (Homo sapiens, UniProt Q12809); experiment: cell-based
Mouse in vivo PK study [5] = settings: male CD1 mice
Protocol: To determine the drug concentration in plasma of the compounds of the present disclosure following intravenous and oral administration in male CD 1 Mice, pharmacokinetic profile and PK parameters were obtained.
Test animals: healthy male CD1 mice (body weight 20-30 g, 18 mice, free access to food and water), provided by Sibeifu laboratory. […]
Samples collection: the healthy animals were used, weighed the bodyweight and marked at tail and cage card prior to dosing. Blood samples (0.03 mL per time point) were collected from dorsal metatarsal vein at 0.083, 0.25, 0.5, 1, 2, 4, 8, 24 h post dose for IV group and at 0.25, 0.5, 1, 2, 4, 8, 24 h post dose for PO group, the terminal time point was collected from heart (˜0.3 mL). The blood samples were put into the tube with heparin-Na coated and then put on the cold box, centrifuged at 4° C. 4000 g, 5 minutes immediately after collecting all samples per time point to get plasma. The plasma samples were stored in a freezer at −75±15° C. prior to analysis.
The drug concentration was determined by LC/MS/MS method, and the PK parameters were observed as follows.

Mouse in vivo PK study [6] = settings: male CD1 mice; remark: listed apart in the source
[7] = target: T4, L858R/T790M double mutant EGFR in H1975 cells (Homo sapiens, UniProt P00533, L858R/T790M); experiment: L858R/T790M double mutant H1975 autophosphorylation inhibition assay (ELISA); type: cell-based; settings: cellular EGFR autophosphorylation, H1975, 2 h treatment; read-out: DM (H1975) IC50
T4 construct: endogenous in cells; host or cells: H1975 cells

[8] = NCI-H1975 cells, read-out: NCI-H1975 IC50 (nM) DM
[9] = cellular proliferation, wild type EGFR, read-out: A431 IC50 (nM) WT
[10] = Homo sapiens, NCI-H1975, 72 h, read-out: NCI-H1975 IC50 (nM) DM
[11] = mouse, plasma, 10 mg/kg PO, read-out: T1/2 (PO) (converted)
[12] = Homo sapiens, PC-9, 72 h, read-out: PC9 IC50 (nM) SM
[13] = Homo sapiens, A-431, 72 h, cellular proliferation, wild type EGFR, read-out: A431 IC50 (nM) WT

T4 sequence (P00533 25-1210 T790M/L858R): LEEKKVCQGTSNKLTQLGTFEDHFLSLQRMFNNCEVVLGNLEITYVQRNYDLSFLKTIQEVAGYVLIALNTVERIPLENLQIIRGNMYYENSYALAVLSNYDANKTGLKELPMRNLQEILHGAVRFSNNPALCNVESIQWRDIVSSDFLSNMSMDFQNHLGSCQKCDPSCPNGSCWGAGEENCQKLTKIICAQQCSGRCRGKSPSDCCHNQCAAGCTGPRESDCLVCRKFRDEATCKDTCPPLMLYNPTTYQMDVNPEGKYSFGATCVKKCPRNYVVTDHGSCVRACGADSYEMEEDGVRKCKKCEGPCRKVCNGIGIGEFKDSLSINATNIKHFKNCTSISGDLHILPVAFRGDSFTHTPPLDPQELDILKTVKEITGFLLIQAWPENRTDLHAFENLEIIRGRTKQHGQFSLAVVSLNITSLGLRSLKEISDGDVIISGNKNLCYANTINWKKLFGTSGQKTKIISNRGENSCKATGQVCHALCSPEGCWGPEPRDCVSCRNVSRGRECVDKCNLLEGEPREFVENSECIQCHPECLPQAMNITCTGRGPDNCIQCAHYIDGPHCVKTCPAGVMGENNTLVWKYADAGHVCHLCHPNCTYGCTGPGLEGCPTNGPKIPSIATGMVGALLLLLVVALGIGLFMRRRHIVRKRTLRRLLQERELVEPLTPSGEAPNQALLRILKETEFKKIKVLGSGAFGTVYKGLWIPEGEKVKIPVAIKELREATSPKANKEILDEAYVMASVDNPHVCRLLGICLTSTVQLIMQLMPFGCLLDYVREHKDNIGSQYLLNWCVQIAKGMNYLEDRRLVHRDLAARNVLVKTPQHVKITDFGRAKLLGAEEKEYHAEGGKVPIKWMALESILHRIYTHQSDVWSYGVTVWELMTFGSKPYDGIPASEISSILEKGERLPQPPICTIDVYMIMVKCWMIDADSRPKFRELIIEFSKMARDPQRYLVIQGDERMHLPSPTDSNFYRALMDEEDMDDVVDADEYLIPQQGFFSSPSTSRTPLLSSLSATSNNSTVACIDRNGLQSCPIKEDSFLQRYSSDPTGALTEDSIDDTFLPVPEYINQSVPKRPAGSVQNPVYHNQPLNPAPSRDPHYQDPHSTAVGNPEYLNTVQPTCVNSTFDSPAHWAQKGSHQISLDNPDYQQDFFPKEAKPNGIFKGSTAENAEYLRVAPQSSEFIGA
Sequence of hERG channel (HEK 293 cell line stably expressing hERG channel) (Q12809 whole entry): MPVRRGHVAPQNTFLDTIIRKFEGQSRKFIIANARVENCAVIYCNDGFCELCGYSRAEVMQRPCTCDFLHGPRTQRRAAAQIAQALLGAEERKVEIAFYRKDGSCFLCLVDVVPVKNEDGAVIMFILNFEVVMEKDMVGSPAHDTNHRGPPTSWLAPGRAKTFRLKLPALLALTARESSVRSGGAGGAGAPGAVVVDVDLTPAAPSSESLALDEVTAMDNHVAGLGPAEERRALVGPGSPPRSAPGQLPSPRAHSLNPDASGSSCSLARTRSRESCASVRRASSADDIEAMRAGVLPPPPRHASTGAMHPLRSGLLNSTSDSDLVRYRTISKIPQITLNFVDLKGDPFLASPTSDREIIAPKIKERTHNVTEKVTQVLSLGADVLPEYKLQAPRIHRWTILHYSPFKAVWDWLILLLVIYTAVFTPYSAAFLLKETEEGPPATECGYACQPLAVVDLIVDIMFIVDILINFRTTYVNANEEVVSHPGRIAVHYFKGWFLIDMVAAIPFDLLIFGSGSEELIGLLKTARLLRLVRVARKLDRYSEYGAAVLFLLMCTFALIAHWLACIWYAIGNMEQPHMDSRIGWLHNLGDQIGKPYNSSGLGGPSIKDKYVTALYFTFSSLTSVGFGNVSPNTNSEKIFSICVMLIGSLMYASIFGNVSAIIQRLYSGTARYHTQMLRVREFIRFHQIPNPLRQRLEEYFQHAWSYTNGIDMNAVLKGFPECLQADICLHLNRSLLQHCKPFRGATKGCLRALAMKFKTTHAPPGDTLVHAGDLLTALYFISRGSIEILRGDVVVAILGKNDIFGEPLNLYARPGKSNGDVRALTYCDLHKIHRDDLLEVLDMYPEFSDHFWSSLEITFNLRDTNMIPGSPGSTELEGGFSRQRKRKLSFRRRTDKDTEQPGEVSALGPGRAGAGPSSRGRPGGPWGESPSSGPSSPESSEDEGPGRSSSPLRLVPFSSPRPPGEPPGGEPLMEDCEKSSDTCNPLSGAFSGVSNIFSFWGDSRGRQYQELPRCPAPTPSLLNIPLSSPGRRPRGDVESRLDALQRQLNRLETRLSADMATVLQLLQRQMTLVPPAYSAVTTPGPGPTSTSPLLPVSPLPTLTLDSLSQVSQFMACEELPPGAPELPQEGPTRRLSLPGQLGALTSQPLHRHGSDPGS
T2 sequence (P06213 1005-1382 limits assumed): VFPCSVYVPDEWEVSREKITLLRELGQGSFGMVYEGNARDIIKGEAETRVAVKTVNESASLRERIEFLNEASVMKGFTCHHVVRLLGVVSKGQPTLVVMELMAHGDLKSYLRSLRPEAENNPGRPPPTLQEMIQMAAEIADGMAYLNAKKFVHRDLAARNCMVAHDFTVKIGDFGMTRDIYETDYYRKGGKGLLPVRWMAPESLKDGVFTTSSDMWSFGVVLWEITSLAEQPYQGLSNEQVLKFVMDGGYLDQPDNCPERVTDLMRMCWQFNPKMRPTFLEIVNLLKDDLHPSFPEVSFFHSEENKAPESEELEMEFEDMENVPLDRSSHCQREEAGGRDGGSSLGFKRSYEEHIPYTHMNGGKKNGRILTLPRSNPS
Sequence of Wild type EGFR in A431 cells (P00533 25-1210): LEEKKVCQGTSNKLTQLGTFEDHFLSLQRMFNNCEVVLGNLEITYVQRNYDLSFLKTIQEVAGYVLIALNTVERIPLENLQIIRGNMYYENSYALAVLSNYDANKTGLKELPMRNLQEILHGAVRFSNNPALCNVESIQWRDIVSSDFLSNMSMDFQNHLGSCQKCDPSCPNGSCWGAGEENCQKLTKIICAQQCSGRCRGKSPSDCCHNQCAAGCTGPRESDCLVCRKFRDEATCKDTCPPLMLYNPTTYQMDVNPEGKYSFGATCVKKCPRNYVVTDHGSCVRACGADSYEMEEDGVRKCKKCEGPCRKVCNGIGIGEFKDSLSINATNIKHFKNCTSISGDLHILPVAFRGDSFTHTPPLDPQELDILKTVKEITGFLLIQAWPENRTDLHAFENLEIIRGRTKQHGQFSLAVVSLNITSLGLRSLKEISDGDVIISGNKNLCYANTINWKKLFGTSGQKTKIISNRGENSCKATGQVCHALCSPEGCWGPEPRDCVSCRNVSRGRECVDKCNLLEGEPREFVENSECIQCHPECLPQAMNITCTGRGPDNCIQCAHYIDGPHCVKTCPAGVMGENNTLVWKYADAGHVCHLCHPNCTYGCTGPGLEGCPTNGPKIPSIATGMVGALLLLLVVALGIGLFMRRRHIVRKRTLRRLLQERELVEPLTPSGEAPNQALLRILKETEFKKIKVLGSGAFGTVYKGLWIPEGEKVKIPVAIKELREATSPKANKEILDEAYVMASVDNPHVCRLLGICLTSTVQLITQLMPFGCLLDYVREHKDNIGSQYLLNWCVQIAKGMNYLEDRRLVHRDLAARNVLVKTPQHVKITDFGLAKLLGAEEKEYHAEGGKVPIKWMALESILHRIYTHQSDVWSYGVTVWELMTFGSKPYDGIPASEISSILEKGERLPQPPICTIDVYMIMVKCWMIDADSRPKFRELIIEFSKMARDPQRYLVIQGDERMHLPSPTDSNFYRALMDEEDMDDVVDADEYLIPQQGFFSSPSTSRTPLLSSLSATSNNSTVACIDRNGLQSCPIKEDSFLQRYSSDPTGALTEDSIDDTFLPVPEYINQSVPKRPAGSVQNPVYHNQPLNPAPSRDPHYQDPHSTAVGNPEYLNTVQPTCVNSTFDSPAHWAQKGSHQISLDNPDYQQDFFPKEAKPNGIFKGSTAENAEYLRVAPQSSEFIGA
T3 sequence (P00533 with tags, fused parts or gaps DEL746-750): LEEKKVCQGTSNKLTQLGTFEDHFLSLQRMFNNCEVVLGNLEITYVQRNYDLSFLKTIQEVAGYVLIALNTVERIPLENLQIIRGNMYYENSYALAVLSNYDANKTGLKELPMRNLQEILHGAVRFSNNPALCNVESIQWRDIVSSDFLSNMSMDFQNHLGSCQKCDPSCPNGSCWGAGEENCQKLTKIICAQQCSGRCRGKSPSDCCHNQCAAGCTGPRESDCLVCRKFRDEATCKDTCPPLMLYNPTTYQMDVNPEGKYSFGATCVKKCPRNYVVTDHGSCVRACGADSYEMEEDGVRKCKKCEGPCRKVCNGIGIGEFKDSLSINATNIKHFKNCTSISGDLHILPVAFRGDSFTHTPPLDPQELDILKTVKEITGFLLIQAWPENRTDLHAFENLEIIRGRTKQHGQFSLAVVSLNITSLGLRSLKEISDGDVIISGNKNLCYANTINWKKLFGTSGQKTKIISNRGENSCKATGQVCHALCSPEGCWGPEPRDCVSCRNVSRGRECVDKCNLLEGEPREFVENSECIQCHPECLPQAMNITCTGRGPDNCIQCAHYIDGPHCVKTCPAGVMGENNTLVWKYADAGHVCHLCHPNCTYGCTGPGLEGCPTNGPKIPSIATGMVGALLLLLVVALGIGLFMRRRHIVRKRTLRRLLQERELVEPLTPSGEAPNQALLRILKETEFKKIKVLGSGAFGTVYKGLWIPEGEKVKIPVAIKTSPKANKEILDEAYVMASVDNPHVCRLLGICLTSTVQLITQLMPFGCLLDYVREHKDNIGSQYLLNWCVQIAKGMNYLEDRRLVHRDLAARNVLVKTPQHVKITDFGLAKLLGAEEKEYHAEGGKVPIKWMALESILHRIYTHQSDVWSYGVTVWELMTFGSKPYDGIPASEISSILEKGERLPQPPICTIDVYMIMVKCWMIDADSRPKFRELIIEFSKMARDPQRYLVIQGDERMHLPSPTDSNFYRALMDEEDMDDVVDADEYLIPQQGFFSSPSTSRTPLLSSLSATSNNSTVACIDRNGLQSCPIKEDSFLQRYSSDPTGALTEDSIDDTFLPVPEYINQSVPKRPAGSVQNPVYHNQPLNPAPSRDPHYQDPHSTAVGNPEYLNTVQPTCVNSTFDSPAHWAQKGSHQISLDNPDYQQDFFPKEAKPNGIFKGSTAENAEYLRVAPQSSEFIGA

| Compound | IC50 (IGF-1R) [nM] | IC50 (INSR) [nM] | IC50 (H1975 cells; [8]) | IC50 (PC-9 cells; read-out: PC9 IC50 (nM) SM) | IC50 [1] | IC50 (A431 cells; [9]) [nM] | IC50 (H1975 cells; [10]) [nM] | IC50 [3] | IC50 (PC-9 cells; [12]) [nM] | IC50 (A431 cells; [13]) [nM] | IC50 [7] | IC50 [4] [nM] | also measured |
| --- | --- | --- | --- | --- | --- | --- | --- | --- | --- | --- | --- | --- | --- |
| C=CC(=O)Nc1cc(Nc2nccc(-c3c[nH]c4ccccc34)n2)c(OC)cc1N(C)CCN(C)C [AZD5104, reference compound] | 102 | 94.8 | 2.95 nM and 3.06 nM and 4.05 nM | 1.34 nM and 2.27 nM and 1.92 nM | 4.04 nM and 4.64 nM and 5.59 nM and 5.83 nM | 95.2 | – | – | – | – | – | – | IC50 (H1975 cells; NCI-H1975 cells, listed as AZD-5104, read-out: NCI-H1975 IC50 (nM) DM): 3.9 nM; IC50 (PC-9 cells; listed as AZD-5104, read-out: PC9 IC50 (nM) SM): 1.57 nM |
| C=CC(=O)Nc1cc(Nc2nccc(-c3cn(C)c4ccccc34)n2)c(OC)cc1N(C)CCN(C)C [AZD9291, reference compound] | 455 | […] | […] | 7.43 nM | – | – | […] | – | – | – | – | – | IC50 (H1975 cells; NCI-H1975 cells, listed as AZD-9291, read-out: NCI-H1975 IC50 (nM) DM): […]; TGI (tumor growth inhibition) ([2]; 5 mg/kg): 107.63%; Tumor Size ([2]; 5 mg/kg): 123 ± 39 mm^3; IC50 (A431 cells; read-out: A431 IC50 (nM) WT, cellular proliferation, wild type EGFR): […] |
| C=CC(=O)Nc1cc(Nc2nccc(-c3cc(C#N)c4c(c3)c(C)cn4C)n2)c(OC)cc1N(C)CCN(C)C [Example 2, N-(5-((4-(7-Cyano-1,3-dimethyl-1H-indol-5-yl)pyrimidin-2-yl)amino)-2-((2-(dimethylamino)ethyl)(methyl)amino)-4-methoxyphenyl)acrylamide] | 1120 | 1820 | 3.45 nM | 3.22 nM | 7.06 nM and 5.4 nM | 3680 | 4.77 | 77.1 nM and 166 nM | 4.18 | 2120 | 4.29 nM and 2.54 nM | 6570 | AUC (Mouse in vivo PK study [5]; mouse, plasma, 2 mg/kg IV): 937 ng·h/mL; F (Mouse in vivo PK study [6]; 2 mg/kg IV, 10 mg/kg PO): 20.8%; clearance (Mouse in vivo PK study [6]; mouse, plasma, 2 mg/kg IV): 35.5 mL/min/kg; half-life (Mouse in vivo PK study [6]; mouse, plasma, 2 mg/kg IV, read-out: T1/2 (IV) (converted)): 90 min; AUC (Mouse in vivo PK study [6]; mouse, plasma, 10 mg/kg PO): 976 ng·h/mL; Cmax (Mouse in vivo PK study [6]; mouse, plasma, 10 mg/kg PO): 119 ng/mL; half-life (Mouse in vivo PK study [6]; [11]): 154 min; TGI (tumor growth inhibition) ([2]; 5 mg/kg): 96.93%; TRTV/CRTV (relative tumor volume) ([2]; 5 mg/kg): 19.70%; Tumor Size ([2]; 5 mg/kg): 230 ± 93 mm^3; TGI (tumor growth inhibition) ([2]; 15 mg/kg): 115.76%; TRTV/CRTV (relative tumor volume) ([2]; 15 mg/kg): 3.93%; Tumor Size ([2]; 15 mg/kg): 46 ± 32 mm^3; TGI (tumor growth inhibition) ([2]; 30 mg/kg): 115.52%; TRTV/CRTV (relative tumor volume) ([2]; 30 mg/kg): 3.92%; Tumor Size ([2]; 30 mg/kg): 45 ± 19 mm^3 |
| C=CC(=O)Nc1cc(Nc2nccc(-c3cc(C#N)cc4c3ccn4C)n2)c(OC)cc1N(C)CCN(C)C [Example 4, N-(5-((4-(6-Cyano-1-methyl-1H-indol-4-yl)pyrimidin-2-yl)amino)-2-((2-(dimethylamino)ethyl)(methyl)amino)-4-methoxyphenyl)acrylamide] | 831 | 965 | – | – | 10.9 nM | – | 1.03 | 69.5 nM | 1.91 | 1460 | 1.98 nM | 2230 | F (Mouse in vivo PK study [5]; 1 mg/kg IV, 10 mg/kg PO): 15%; AUC (Mouse in vivo PK study [5]; mouse, plasma, 1 mg/kg IV): 96 ng·h/mL; clearance (Mouse in vivo PK study [5]; mouse, plasma, 1 mg/kg IV): 183 mL/min/kg; half-life (Mouse in vivo PK study [5]; mouse, plasma, 1 mg/kg IV, read-out: T1/2 (IV) (converted)): 34.6 min; AUC (Mouse in vivo PK study [6]; mouse, plasma, 10 mg/kg PO): 225 ng·h/mL; Cmax (Mouse in vivo PK study [6]; mouse, plasma, 10 mg/kg PO): 80.2 ng/mL; half-life (Mouse in vivo PK study [6]; [11]): 438 min |
| C=CC(=O)Nc1cc(Nc2nccc(-c3cc(C#N)c4ccn(C)c4c3)n2)c(OC)cc1N(C)CCN(C)C [Example 7, N-(5-((4-(4-Cyano-1-methyl-1H-indol-6-yl)pyrimidin-2-yl)amino)-2-((2-(dimethylamino)ethyl)(methyl)amino)-4-methoxyphenyl)acrylamide] | 390 | 621 | – | – | 33 nM | – | 4.76 | 302 nM | 7.38 | 2170 | 8.26 nM | 1090 | – |
| C=CC(=O)Nc1cc(Nc2nccc(-n3nc(N(C)C)c4ncccc43)n2)c(OCC(F)F)cc1N(C)CCN(C)C [Example 21, N-(4-(2,2-Difluoroethoxy)-5-((4-(3-(dimethylamino)-1H-pyrazolo[4,3-b]pyridin-1-yl)pyrimidin-2-yl)amino)-2-(N-(2-(dimethylamino)ethyl)-N-methylamino)phenyl)acrylamide] | 1510 | 2730 | – | – | 23.8 nM | – | 6.84 | 192 nM | 7.21 | 1710 | 12.2 nM | 3230 | – |
| C=CC(=O)Nc1cc(Nc2nccc(-n3nc(NCC)c4ncccc43)n2)c(OCC(F)F)cc1N(C)CCN(C)C [Example 22, N-(4-(2,2-Difluoroethoxy)-2-((2-(dimethylamino)ethyl)(methyl)amino)-5-((4-(3-(ethylamino)-1H-pyrazolo[4,3-b]pyridin-1-yl)pyrimidin-2-yl)amino)phenyl)acrylamide] | 5650 | 2530 | – | – | 5.79 nM | – | 3.57 | 35 nM | 1.79 | 675 | 4.54 nM | – | – |

Now from value to compound, other results behind:

| IC50 (IGF-1R) [nM] | IC50 (INSR) [nM] | IC50 (H1975 cells; [8]) | IC50 (PC-9 cells; read-out: PC9 IC50 (nM) SM) | IC50 [1] | IC50 (A431 cells; [9]) [nM] | IC50 (H1975 cells; [10]) [nM] | IC50 [3] | IC50 (PC-9 cells; [12]) [nM] | IC50 (A431 cells; [13]) [nM] | IC50 [7] | Compound | IC50 [4] [nM] | also measured |
| --- | --- | --- | --- | --- | --- | --- | --- | --- | --- | --- | --- | --- | --- |
| 1590 | 2140 | 3.58 nM | 2.9 nM | 17.1 nM | 2210 | 5.86 | 148 nM | 4.86 | 1300 | 6.46 nM | C=CC(=O)Nc1cc(Nc2nccc(-n3nc(N(C)C)c4ccsc43)n2)c(OC)cc1N(C)CCN(C)C [Example 5, N-(5-((4-(3-(Dimethylamino)-1H-thieno[2,3-c]pyrazol-1-yl)pyrimidin-2-yl)amino)-2-((2-(dimethylamino)ethyl)(methyl)amino)-4-methoxyphenyl) acrylamide] | 3490 | – |
| 1160 | 968 | – | – | 5.87 nM | – | 2.66 | 49.1 nM | 1.79 | 1240 | 3.94 nM | C=CC(=O)Nc1cc(Nc2nccc(-n3nc(N(C)C)c4ccccc43)n2)c(OC(F)F)cc1N(C)CCN(C)C [Example 18, N-(4-(Difluoromethoxy)-5-((4-(3-(dimethylamino)-1H-indazol-1-yl)pyrimidin-2-yl)amino)-2-((2-(dimethylamino)ethyl)(methyl)amino)phenyl) acrylamide] | 1680 | – |
| 1680 | 1750 | – | – | 14.7 nM | – | 2.82 | 92.8 nM | 3.78 | 953 | 5.35 nM | C=CC(=O)Nc1cc(Nc2nccc(-n3nc(N(C)C)c4ncccc43)n2)c(OC(F)F)cc1N(C)CCN(C)C [Example 19] | 1100 | – |
